Results published in patent publication US10899759B2, “Positive allosteric modulators of the muscarinic acetylcholine receptor M1” (Vanderbilt University, priority 2016, dated 2021).

Target: T1, human mAChR M1 (Homo sapiens, UniProt P11229)
T1 construct: host or cells: CHO-K1
T1 sequence (P11229 1-460): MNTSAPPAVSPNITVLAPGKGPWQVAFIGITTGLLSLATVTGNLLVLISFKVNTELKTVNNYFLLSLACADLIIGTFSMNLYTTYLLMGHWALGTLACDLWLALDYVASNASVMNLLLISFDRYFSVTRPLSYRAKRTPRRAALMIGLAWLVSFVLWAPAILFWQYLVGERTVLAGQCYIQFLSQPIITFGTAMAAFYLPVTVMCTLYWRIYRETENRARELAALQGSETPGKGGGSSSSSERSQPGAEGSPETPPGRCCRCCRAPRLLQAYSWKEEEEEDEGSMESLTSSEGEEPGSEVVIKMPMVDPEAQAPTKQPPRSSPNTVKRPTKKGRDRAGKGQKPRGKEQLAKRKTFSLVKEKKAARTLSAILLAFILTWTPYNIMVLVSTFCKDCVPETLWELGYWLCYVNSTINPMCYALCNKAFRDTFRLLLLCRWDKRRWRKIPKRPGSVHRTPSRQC
Assay: mAChR M1 cell-based functional assay (calcium mobilization, Fluo-4, FDSS)
Details: CHO-K1 cells stably expressing hM1; for Emax: read-out: Human M1 Emax; for EC50: positive allosteric modulator activity as increase in the EC20 acetylcholine response
Experimental: Chinese hamster ovary (CHO-K1) cells stably expressing rat (r)M1 were purchased from the American Type Culture Collection and cultured according to their indicated protocol. […] To make stable rM2, hM2, rM3, hM4, and rM4 cell lines for use in calcium mobilization assays, these cells also were stably transfected with a chimeric G-protein (Gqi5) (provided by B. R. Conklin, University of California, San Francisco) using Lipofectamine 2000. rM1, hM1, rM3, hM3, rM5, and hM5 cells were grown in Ham's F-12 medium containing 10% heat-inactivated fetal bovine serum (FBS), 20 mM HEPES, and 50 μg/mL G418 sulfate. rM2-Gqi5, hM2-Gqi5, and hM4-Gqi5 cells were grown in the same medium also containing 500 μg/mL Hygromycin B. Stable rM4-Gqi5 cells were grown in DMEM containing 10% heat-inactivated FBS, 20 mM HEPES, 400 μg/mL G418 sulfate, and 500 μg/mL Hygromycin B.
For high throughput measurement of agonist-evoked increases in intracellular calcium, CHO-K1 cells stably expressing muscarinic receptors were plated in growth medium lacking G418 and hygromycin at 15,000 cells/20 μL/well in Greiner 384-well black-walled, tissue culture (TC)-treated, clear-bottom plates (VWR). Cells were incubated overnight at 37° C. and 5% CO2. […] Compound master plates were formatted in an 11 point CRC format (1:3 dilutions) in 100% DMSO with a starting concentration of 10 mM using the BRAVO liquid handler (Agilent). Test compound CRCs were then transferred to daughter plates (240 nL) using the Echo acoustic plate reformatter (Labcyte, Sunnyvale, Calif.) and then diluted into assay buffer (40 μL) to a 2× stock using a Thermo Fisher Combi (Thermo Fisher Scientific, Waltham, Mass.).
Calcium flux was measured using the Functional Drug Screening System (FDSS) 6000 (Hamamatsu Corporation, Tokyo, Japan) as an increase in the fluorescent static ratio. Compounds were applied to cells (20 μL, 2×) using the automated system of the FDSS 6000 at 4 s into the 300 s protocol and the data were collected at 1 Hz. […] Agonist activity was analyzed as a concentration-dependent increase in calcium mobilization upon compound addition. Positive allosteric modulator activity was analyzed as a concentration-dependent increase in the EC20 acetylcholine response. Antagonist activity was analyzed as a concentration-dependent decrease in the EC80 acetylcholine response. Concentration-response curves were generated using a four-parameter logistical equation in XLfit curve fitting software (IDBS, Bridgewater, N.J.) for Excel (Microsoft, Redmond, Wash.) or Prism (GraphPad Software, Inc., San Diego, Calif.).
The compound numbers correspond to the compound numbers used in Table 1.

## Cn1ccc2c(Cc3ccc(-c4cscn4)cc3)cc(C(=O)NC3COC3)nc21 [Compound 35, 1-methyl-N-(oxetan-3-yl)-4-[(4-thiazol-4-ylphenyl)methyl]pyrrolo[2,3-b]pyridine-6-carboxamide]
EC20 acetylcholine response
  Emax: 40.2%
  EC50: 1230 nM

## O=C(NC1CC(F)(F)C1)c1cc(Cc2ccc(-n3cccn3)cc2)c2ccsc2n1 [Compound 83, N-(3,3-difluorocyclobutyl)-4-[(4-pyrazol-1-ylphenyl)methyl]thieno[2,3-b]pyridine-6-carboxamide]
EC20 acetylcholine response
  Emax: 74.8%
  EC50: 1770 nM

## Cn1cc(-c2ccc(Cc3cc(C(=O)NC4CCOC(C)(C)C4)nc4sccc34)cn2)cn1 (centres unmarked) [Compound 115, N-(2,2-dimethyltetrahydropyran-4-yl)-4-[[6-(1-methylpyrazol-4-yl)-3-pyridyl]methyl]thieno[2,3-b]pyridine-6-carboxamide]
EC20 acetylcholine response
  Emax: 59.7%
  EC50: 50 nM

## Cn1cc(-c2ccc(Cc3cc(C(=O)N[C@H]4CC[C@@H]4O)nc4c3ccn4C)cn2)cn1 [Compound 50, N-[(1S,2S)-2-hydroxycyclobutyl]-1-methyl-4-[[6-(1-methylpyrazol-4-yl)-3-pyridyl]methyl]pyrrolo[2,3-b]pyridine-6-carboxamide]
EC20 acetylcholine response
  Emax: 86.2%
  EC50: 380 nM

## Cc1nc(-c2ccc(Cc3cc(C(=O)NC4CCOCC4C)nc4sccc34)cc2)co1 (centres unmarked) [Compound 134, 4-[[4-(2-methyloxazol-4-yl)phenyl]methyl]-N-(3-methyltetrahydropyran-4-yl)thieno[2,3-b]pyridine-6-carboxamide]
EC20 acetylcholine response
  Emax: 51.4%
  EC50: 1220 nM

## O=C(NCC1CCOCC1)c1cc(Cc2ccc(-n3cccn3)cc2)c2ccsc2n1 [Compound 76, 4-[(4-pyrazol-1-ylphenyl)methyl]-N-(tetrahydropyran-4-ylmethyl)thieno[2,3-b]pyridine-6-carboxamide]
EC20 acetylcholine response
  Emax: 68.8%
  EC50: 420 nM

## CC(NC(=O)c1cc(Cc2ccc(-c3ccn(C)n3)nc2)c2ccn(C)c2n1)C1CCCO1 (centres unmarked) [Compound 157, 1-methyl-4-[[6-(1-methylpyrazol-3-yl)-3-pyridyl]methyl]-N-(1-tetrahydrofuran-2-ylethyl)pyrrolo[2,3-b]pyridine-6-carboxamide]
EC20 acetylcholine response
  Emax: 72.7%
  EC50: 1270 nM

## Cc1nc(-c2ccc(Cc3cc(C(=O)NC4CCOCC4(C)C)nc4sccc34)cc2)co1 (centres unmarked) [Compound 133, N-(3,3-dimethyltetrahydropyran-4-yl)-4-[[4-(2-methyloxazol-4-yl)phenyl]methyl]thieno[2,3-b]pyridine-6-carboxamide]
EC20 acetylcholine response
  Emax: 62.3%
  EC50: 2320 nM

## Cn1ccc(-c2ccc(Cc3cc(C(=O)NCC4CCOCC4)nc4c3ccn4C)cc2)n1 [Compound 43, 1-methyl-4-[[4-(1-methylpyrazol-3-yl)phenyl]methyl]-N-(tetrahydropyran-4-ylmethyl)pyrrolo[2,3-b]pyridine-6-carboxamide]
EC20 acetylcholine response
  Emax: 49.6%
  EC50: 610 nM

## Cn1cc(-c2ccc(Cc3cc(C(=O)N[C@H]4CCOC[C@@H]4O)nc4c3ccn4C)cn2)cn1 [Compound 45, N-[(3R,4S)-3-hydroxytetrahydropyran-4-yl]-1-methyl-4-[[6-(1-methylpyrazol-4-yl)-3-pyridyl]methyl]pyrrolo[2,3-b]pyridine-6-carboxamide]
EC20 acetylcholine response
  Emax: 74.3%
  EC50: 10 nM

## Cn1ccc(-c2ccc(Cc3cc(C(=O)NC4CCOCC4)nc4sccc34)cc2)n1 [Compound 87, 4-[[4-(1-methylpyrazol-3-yl)phenyl]methyl]-N-tetrahydropyran-4-yl-thieno[2,3-b]pyridine-6-carboxamide]
EC20 acetylcholine response
  Emax: 60.4%
  EC50: 2130 nM

## Cc1nc(-c2ccc(Cc3cc(C(=O)N[C@H]4CCCC[C@@H]4O)nc4c3ccn4C)cc2)co1 [Compound 52, N-[(1S,2S)-2-hydroxycyclohexyl]-1-methyl-4-[[4-(2-methyloxazol-4-yl)phenyl]methyl]pyrrolo[2,3-b]pyridine-6-carboxamide]
EC20 acetylcholine response
  Emax: 80.1%
  EC50: 100 nM

## Cn1ccc2c(Cc3ccc(-c4nccs4)cc3)cc(C(=O)N[C@H]3CCC[C@@H]3O)nc21 [Compound 64, N-[(1S,2S)-2-hydroxycyclopentyl]-1-methyl-4-[(4-thiazol-2-ylphenyl)methyl]pyrrolo[2,3-b]pyridine-6-carboxamide]
EC20 acetylcholine response
  Emax: 57.2%
  EC50: 33600 nM

## 1-methyl-N-tetrahydropyran-4-yl-4-[(4-thiazol-2-ylphenyl)methyl]pyrrolo[2,3-b]pyridine-6-carboxamide [Compound 61]
EC20 acetylcholine response
  Human M1 Emax: 56.7%
  EC50: 840 nM

## Cn1ccc(-c2ccc(Cc3cc(C(=O)NCC4CCOC4)nc4sccc34)cc2)n1 (centres unmarked) [Compound 95, 4-[[4-(1-methylpyrazol-3-yl)phenyl]methyl]-N-(tetrahydrofuran-3-ylmethyl)thieno[2,3-b]pyridine-6-carboxamide]
EC20 acetylcholine response
  Emax: 65.5%
  EC50: 370 nM

## Cn1ccc(-c2ccc(Cc3cc(C(=O)NC4CCOCC4)nc4c3ccn4C)cc2)n1 [Compound 39, 1-methy1-4-[[4-(1-methylpyrazol-3-yl)phenyl]methyl]-N-tetrahydropyran-4-yl-pyrrolo[2,3-b]pyridine-6-carboxamide]
EC20 acetylcholine response
  Emax: 81.2%
  EC50: 750 nM

## Cc1nc(-c2ccc(Cc3cc(C(=O)NC4CC(F)C4)nc4sccc34)cc2)co1 (centres unmarked) [Compound 141]
EC20 acetylcholine response
  Emax: 35.9%
  EC50: > 10000 nM

## COCCNC(=O)c1cc(Cc2ccc(-n3cccn3)cc2)c2ccsc2n1 [Compound 85, N-(2-methoxyethyl)-4-[(4-pyrazol-1-ylphenyl)methyl]thieno[2,3-b]pyridine-6-carboxamide]
EC20 acetylcholine response
  Emax: 58.6%
  EC50: 70 nM

## Cn1ccc(-c2ccc(Cc3cc(C(=O)NCC4CCOC4)nc4sccc34)cn2)n1 (centres unmarked) [Compound 108, 4-[[6-(1-methylpyrazol-3-yl)-3-pyridyl]methyl]-N-(tetrahydrofuran-3-ylmethyl)thieno[2,3-b]pyridine-6-carboxamide]
EC20 acetylcholine response
  Emax: 59.4%
  EC50: 150 nM

## Cn1cc(-c2ccc(Cc3cc(C(=O)N[C@H]4CCOC4)nc4sccc34)cn2)cn1 [Compound 120, 4-[[6-(1-methylpyrazol-4-yl)-3-pyridyl]methyl]-N-[(3S)-tetrahydrofuran-3-yl]thieno[2,3-b]pyridine-6-carboxamide]
EC20 acetylcholine response
  Emax: 56.9%
  EC50: 80 nM

## Cn1ccc(-c2ccc(Cc3cc(C(=O)NC4CCOC(C)(C)C4)nc4sccc34)cc2)n1 (centres unmarked) [Compound 90, N-(2,2-dimethyltetrahydropyran-4-yl)-4-[[4-(1-methylpyrazol-3-yl)phenyl]methyl]thieno[2,3-b]pyridine-6-carboxamide]
EC20 acetylcholine response
  Emax: 36.4%
  EC50: 10 nM

## CC1COCCC1NC(=O)c1cc(Cc2ccc(-c3ccn(C)n3)nc2)c2ccsc2n1 (centres unmarked) [Compound 106, 4-[[6-(1-methylpyrazol-3-yl)-3-pyridyl]methyl]-N-(3-methyltetrahydropyran-4-yl)thieno[2,3-b]pyridine-6-carboxamide]
EC20 acetylcholine response
  Emax: 58.4%
  EC50: 110 nM

## COCC(C)NC(=O)c1cc(Cc2ccc(-c3coc(C)n3)cc2)c2ccsc2n1 (centres unmarked) [Compound 144, N-(2-methoxy-1-methyl-ethyl)-4-[[4-(2-methyloxazol-4-yl)phenyl]methyl]thieno[2,3-b]pyridine-6-carboxamide]
EC20 acetylcholine response
  Emax: 64.2%
  EC50: 950 nM

## Cc1nc(-c2ccc(Cc3cc(C(=O)NC4CCOC(C)(C)C4)nc4sccc34)cc2)co1 (centres unmarked) [Compound 131, N-(2,2-dimethyltetrahydropyran-4-yl)-4-[[4-(2-methyloxazol-4-yl)phenyl]methyl]thieno[2,3-b]pyridine-6-carboxamide]
EC20 acetylcholine response
  Emax: 33.3%
